Data as given in paper PMC11125359 (Pharmaceuticals, 2024).
Read-outs that look alike come from different tables or passages of the source.

Columns and labels:
[1] = system: α-amylase; assay: α-Amylase inhibition (anti-diabetic); format: biochemical; settings: equal concentrations (1000 µg/mL); mean ± SE
[2] = system: α-glucosidase; assay: α-Glucosidase inhibition (anti-diabetic); format: biochemical; settings: equal concentrations (1000 µg/mL); mean ± SE
[3] = target: acetylcholinesterase (AChE) (Homo sapiens, UniProt P22303); assay: biochemical; settings: same concentration (1000 µg/mL); mean ± SE
Chain of acetylcholinesterase (AChE) (P22303 32-614, species assumed): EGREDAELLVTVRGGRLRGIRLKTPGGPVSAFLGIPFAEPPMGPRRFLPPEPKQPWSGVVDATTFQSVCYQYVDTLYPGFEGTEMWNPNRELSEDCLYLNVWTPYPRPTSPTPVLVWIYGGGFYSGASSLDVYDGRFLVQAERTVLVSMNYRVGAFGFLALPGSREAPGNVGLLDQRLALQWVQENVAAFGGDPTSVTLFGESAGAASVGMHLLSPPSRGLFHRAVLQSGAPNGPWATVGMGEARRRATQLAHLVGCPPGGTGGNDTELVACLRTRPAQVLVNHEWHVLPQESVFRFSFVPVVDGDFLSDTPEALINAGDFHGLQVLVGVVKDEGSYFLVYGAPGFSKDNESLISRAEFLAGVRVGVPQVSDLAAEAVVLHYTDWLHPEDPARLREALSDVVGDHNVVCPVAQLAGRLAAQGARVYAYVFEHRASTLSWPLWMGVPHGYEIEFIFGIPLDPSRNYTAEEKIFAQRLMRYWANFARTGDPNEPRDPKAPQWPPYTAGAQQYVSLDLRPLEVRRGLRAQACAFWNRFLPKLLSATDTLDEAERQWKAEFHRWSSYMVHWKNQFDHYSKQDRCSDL

[4] = target: bovine serum albumin (BSA) (Bos taurus, UniProt P02769); settings: equal concentrations (1000 µg/mL); mean ± SE
Chain of bovine serum albumin (BSA) (P02769 25-607): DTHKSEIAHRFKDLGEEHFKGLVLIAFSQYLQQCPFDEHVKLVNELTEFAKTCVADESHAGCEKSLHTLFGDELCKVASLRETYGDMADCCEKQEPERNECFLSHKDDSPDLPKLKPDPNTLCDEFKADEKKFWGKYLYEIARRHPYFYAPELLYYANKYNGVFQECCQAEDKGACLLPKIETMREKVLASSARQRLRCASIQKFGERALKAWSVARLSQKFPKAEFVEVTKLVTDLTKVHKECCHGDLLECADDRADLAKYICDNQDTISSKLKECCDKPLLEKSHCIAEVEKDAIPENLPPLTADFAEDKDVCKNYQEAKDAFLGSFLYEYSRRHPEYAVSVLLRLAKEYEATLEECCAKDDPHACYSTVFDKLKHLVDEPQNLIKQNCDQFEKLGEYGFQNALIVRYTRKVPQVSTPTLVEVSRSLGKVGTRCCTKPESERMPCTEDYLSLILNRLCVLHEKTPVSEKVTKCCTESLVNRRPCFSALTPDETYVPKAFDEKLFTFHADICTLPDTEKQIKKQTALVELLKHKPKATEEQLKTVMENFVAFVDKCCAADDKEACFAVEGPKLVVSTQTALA

[5] = system: proteinase enzyme (trypsin); assay: Proteinase enzyme inhibition (anti-inflammatory); format: biochemical; settings: equal concentrations (1000 µg/mL); mean ± SE
[6] = system: human colon cancer (Caco-2) cell line; assay: cells; format: cell-based; settings: for IC50: Homo sapiens, read-out: Cytotoxic activity IC50, Colon (Caco-2)
[7] = Cytotoxic activity, MTT assay, normal lung (WI-38); format: cell-based; settings: human
[8] = system: caspase-3; assay: Caspase-3 ELISA in treated A549 cells; format: cell-based, human; settings: DMSO control 85.92 ± 0.12
[9] = system: Bcl-2; assay: Bcl-2 ELISA in treated A549 cells; format: cell-based, human; settings: DMSO control 9.83 ± 0.05
[10] = system: caspase-3; assay: Caspase-3 ELISA in treated Caco-2 cells; format: cell-based, human; settings: DMSO control 97.06 ± 0.14
[11] = system: Bcl-2; assay: Bcl-2 ELISA in treated Caco-2 cells; format: cell-based, human; settings: DMSO control 7.99 ± 0.08
[12] = Iron-reducing power (IRP); settings: equal concentrations (1000 µg/mL); mean ± SE, three replicates
Protocol: (§1) All in vitro biological activities were assessed in the tested compounds at equal concentrations (1000 µg/mL). All assays were carried out in triplicate.
In vitro biological activities
(§2) The total antioxidant capacity (TAC) was determined by analyzing the green phosphate/Mo5+ complex at a wavelength (λ) of 695 nm, following the procedure described by Prieto
(§3) et al. Samples (at each concentration) were mixed with a reagent solution containing 0.3 N sulfuric
(§4) acid, 28 mM sodium phosphate, and 4 mM ammonium molybdate. Methanol (80%) was used in place
(§5) of the sample for the blank. The tubes were sealed and incubated in a boiling water bath for 90
(§6) minutes. After cooling to room temperature, the absorbance was measured at 695 nm against the
(§7) blank. Ascorbic acid was used at the same concentrations as a standard. The antioxidant capacity was
(§8) expressed as mg gallic acid equivalent per gram weight.
(§9) The iron reducing power was determined as µg/mL using the method proposed by Oyaizu
(§10) In brief, 1ml of the tested sample (at each concentration) was combined with 1mL of 200mM
(§11) sodium phosphate buffer (pH 6.6) and 1mL of 1% potassium ferricyanide. The mixture was then
(§12) incubated at 50°C for 20 minutes, followed by the addition of 1mL of trichloroacetic acid (10%). After
(§13) centrifugation at 2000rpm for 10 minutes, the upper layer solution (2.5 mL) was mixed with 2.5 mL of double deionized water and 1mL of fresh ferric chloride (0.1%). The absorbance was measured at
(§14) 700nm against a blank prepared without the sample. Ascorbic acid was used at the same
(§15) concentrations as a standard. A high absorbance at 700nm indicates a higher reducing power in the
(§16) The 1,1-Diphenyl-2-picryl-hydrazyl (DPPH) radical scavenging activities were evaluated using the method described by Rahman et al. An antioxidant substance capable of donating a
(§17) hydrogen atom to a solution containing DPPH- can reduce the stable free radical, causing the solution
(§18) to change color from violet to pale yellow. The remaining DPPH- radical was quantified by
(§19) nm using a spectroscopic method. Two milliliters of a DPPH solution (100 µM) in ethanol were mixed
(§20) with 2 mL of the sample (at each concentration). The reaction mixture for each concentration was
(§21) thoroughly vortexed and then incubated in the dark at room temperature for 30 minutes. The
(§22) absorbance was then measured spectrophotometrically at 518 nm against a blank (ethanol). For the
(§23) control, 2 mL of ethanol was added instead of the sample and run simultaneously with the test.
(§24) Ascorbic acid was used at the same concentrations as a positive control. Percent inhibition of the
(§25) DPPH free radical was calculated. The median inhibitory concentration (IC 50) for each tested
(§26) The procedure for the 2,2'-azinobis-(3-ethylbenzothiazoline-6-sulfonic acid) (ABTS) assay
(§27) potassium persulfate solution (2.4 mM). The working solution was prepared by mixing the two stock
(§28) solutions in equal quantities and allowing them to react at room temperature in a dark place for 14
(§29) hours. The solution was then diluted by mixing 1 mL of ABTS solution with 60 mL of methanol to
(§30) was prepared for each assay. The tested samples (at each concentration) were allowed to react with 1
(§31) mL of the ABTS solution, and the absorbance was taken at 734 nm after 7 minutes using a
(§32) spectrophotometer. The ABTS scavenging capacities of the samples were compared with that of
(§33) ascorbic acid (at the same concentrations).

[13] = ABTS radical scavenging assay; settings: equal concentrations (1000 µg/mL); mean ± SE
Protocol: as §1
In vitro biological activities
as §2, §3, §4, §5, §6, §7, §8, §9, §10, §11, §12, §13, §14, §15, §16, §17, §18, §19, §20, §21, §22, §23, §24, §25, §26, §27, §28, §29, §30, §31, §32, §33

[14] = DPPH radical-scavenging activity; settings: read-out: DPPH (IC50); mean ± SE, three replicates
[15] = system: human lung cancer (A549) cell line; assay: Cytotoxic activity, MTT assay, lung (A549); settings: for Viability %, A549, 1st concentration: Conc.: 5a 13.45, 5d 12.64, 5e 12.29, 5f 11.81, 7a 12.72, 7f 11.24, DOX 11.50; for Viability %, A549, 2nd concentration: Conc.: 5a 26.91, 5d 25.27, 5e 24.58, 5f 23.63, 7a 25.43, 7f 22.48, DOX 23.00; for Viability %, A549, 3rd concentration: Conc.: 5a 53.81, 5d 50.55, 5e 49.15, 5f 47.26, 7a 50.86, 7f 44.96, DOX 46.00; for Viability %, A549, 4th concentration: Conc.: 5a 107.63, 5d 101.09, 5e 98.31, 5f 94.51, 7a 101.72, 7f 89.93, DOX 91.99; for Viability %, A549, 5th concentration: Conc.: 5a 215.26, 5d 202.19, 5e 196.61, 5f 189.03, 7a 203.44, 7f 179.85, DOX 183.99; for IC50: Homo sapiens, A549, 48 h, read-out: Cytotoxic activity IC50, Lung (A549)
Protocol: (§34) It will be assayed against human lung cancer (A549) and colon (Caco-2) cell line in
(§35) comparison with normal lung (WI-38) cell line using 3-(4,5-dimethythiazol-2-yl)-2,5-diphenyl
(§36) tetrazolium bromide (MTT) assay by determining the optical density (OD) at 570 nm according to the
(§37) The cells were dispensed in a 96-well sterile microplate (3
(§38) µL of each compound or doxorubicin (positive control, in DMSO) for 48 h in a serum free medium
(§39) prior to the MTT assay. Subsequently, the media were carefully removed, and 40 µL of MTT (2.5
(§40) mg/mL) was added to each well and then incubated for an additional 4 h. Purple formazan dye
(§41) crystals were solubilized by the addition of 200 µL of DMSO. The absorbance was measured at 570 nm using a SpectraMax Paradigm Multi-Mode microplate reader. The relative cell viability was
(§42) experiments were conducted in triplicate. Percent of the cell-growth inhibition (%) and the IC 50 was
(§43) calculated using IC 50 calculation software. The concentrations used for calculating the IC 50 depend on

[16] = Total antioxidant capacity (TAC), phosphomolybdenum method; settings: equal concentrations (1000 µg/mL); mean ± SE, three replicates
Protocol: as §1
In vitro biological activities
as §2, §3, §4, §5, §6, §7, §8, §9, §10, §11, §12, §13, §14, §15, §16, §17, §18, §19, §20, §21, §22, §23, §24, §25, §26, §27, §28, §29, §30, §31, §32, §33

[17] = system: human lung cancer (A549) cell line; settings: 48 h
Protocol: as §34, §35, §36, §37, §38, §39, §40, §41, §42, §43

[18] = Conc.: 5a 13.45, 5d 12.64, 5e 12.29, 5f 11.81, 7a 12.72, 7f 11.24, DOX 11.50
[19] = Conc.: 5a 26.91, 5d 25.27, 5e 24.58, 5f 23.63, 7a 25.43, 7f 22.48, DOX 23.00
[20] = Conc.: 5a 53.81, 5d 50.55, 5e 49.15, 5f 47.26, 7a 50.86, 7f 44.96, DOX 46.00
[21] = Conc.: 5a 107.63, 5d 101.09, 5e 98.31, 5f 94.51, 7a 101.72, 7f 89.93, DOX 91.99
[22] = Conc.: 5a 215.26, 5d 202.19, 5e 196.61, 5f 189.03, 7a 203.44, 7f 179.85, DOX 183.99
[23] = IC50 on normal cells (WI-38)/IC50 on Caco-2
[24] = WI-38 normal lung cells, Conc. as printed: 5a 53.81, 5d 50.55, 5e 49.15, 5f 47.26, 7a 50.86, 7f 44.96, DOX 46.00, read-out: Viability %, WI-38, 3rd concentration
[25] = WI-38 normal lung cells, Conc. as printed: 5a 107.63, 5d 101.09, 5e 98.31, 5f 94.51, 7a 101.72, 7f 89.93, DOX 91.99, read-out: Viability %, WI-38, 4th concentration
[26] = WI-38 normal lung cells, Conc.: 5a 13.45, 5d 12.64, 5e 12.29, 5f 11.81, 7a 12.72, 7f 11.24, DOX 11.50, read-out: Viability %, WI-38, 1st concentration
[27] = WI-38 normal lung cells, Conc.: 5a 26.91, 5d 25.27, 5e 24.58, 5f 23.63, 7a 25.43, 7f 22.48, DOX 23.00, read-out: Viability %, WI-38, 2nd concentration
[28] = WI-38 normal lung cells, Conc.: 5a 215.26, 5d 202.19, 5e 196.61, 5f 189.03, 7a 203.44, 7f 179.85, DOX 183.99, read-out: Viability %, WI-38, 5th concentration
[29] = WI-38 normal lung cells, 48 h, MTT, mean ± SE, read-out: Cytotoxic activity IC50, Normal Lung (WI-38)

Row | Structure (SMILES) | Inhibition (%) α-Amylase [1] [%] | Inhibition (%) α-Glucosidase [2] [%] | inhibition at 1000 µg/mL [3] [%] | Inhibition (%) Protein Denaturation [4] [%] | Inhibition (%) Proteinase [5] [%] | Viability %, Caco-2, 1st concentration [6, 18] [%] | Viability %, Caco-2, 2nd concentration [6, 19] [%] | Viability %, Caco-2, 3rd concentration [6, 20] [%] | Viability %, Caco-2, 4th concentration [6, 21] [%] | Viability %, Caco-2, 5th concentration [6, 22] [%] | IC50 ([6]; Caco-2, 48 h, MTT, mean ± SE) [µM] | Therapeutic Index (TI), Colon (Caco-2) [6, 23] | viability at 48 h [7, 24] [%] | viability at 48 h [7, 25] [%] | viability at 48 h [7, 26] [%] | viability at 48 h [7, 27] [%] | viability at 48 h [7, 28] [%] | Caspase-3 level, Lung (A549) [8] [pg/mL] | Bcl-2 level, Lung (A549) [9] [ng/mL] | IC50 [15] [µM] | further results
1 | COc1ccc(Nc2n[nH]c(/N=C/c3ccc(N4CCCCC4)cc3)c2C(=O)Nc2ccc(C)cc2)cc1 [5e] | 31.83 ± 0.05 | 27.37 ± 0.05 | 42.83 ± 0.03 | 27.33 ± 0.03 | 23.76 ± 0.03 | 70.21 | 50.65 | 40.04 | 26.27 | 11.43 | 40.99 ± 0.2 | 15.81 | 81 | 65.7 | 92.9 | 87 | 38.3 | 214.81 ± 0.30 | 3.93 ± 0.02 | 47.74 ± 0.2 | IC50 at 48 h [7, 29]: 648 ± 7.57 µM; Caspase-3 level, Colon (Caco-2) [10]: 315.45 ± 0.46 pg/mL; Bcl-2 level, Colon (Caco-2) [11]: 2.46 ± 0.02 ng/mL; Iron-Reducing Power (IRP) [12]: 34.91 ± 0.07 µg/mL; ABTS (%) inhibition [13]: 76.87 ± 0.05%; IC50 [14]: 23.71 ± 0.01 µM; Viability %, A549, 1st concentration [15]: 90.96%; Viability %, A549, 2nd concentration [15]: 79.91%; Viability %, A549, 3rd concentration [15]: 48.51%; Viability %, A549, 4th concentration [15]: 37.08%; Viability %, A549, 5th concentration [15]: 18.60%; Total Antioxidant Capacity (TAC) [16]: 53.23 ± 0.20 mg Gallic Acid/g
2 | COc1cccc2c1C(=O)c1c(O)c3c(c(O)c1C2=O)C[C@@](O)(C(=O)CO)C[C@@H]3O[C@H]1C[C@H](N)[C@H](O)[C@H](C)O1 [Doxorubicin, reference compound] |  |  |  |  |  |  |  |  |  |  |  |  |  |  |  |  |  | 330.80 ± 0.46 | 2.55 ± 0.01 | 36.45 ± 0.16 | Therapeutic Index (TI), Colon (Caco-2) ([6]; Caco-2): 5.55; IC50 ([6]; Caco-2, 48 h): 54.94 ± 0.16 µM; Viability %, Caco-2, 1st concentration ([6]; human, Caco-2, 48 h): 72.32%; Viability %, Caco-2, 2nd concentration ([6]; human, Caco-2, 48 h): 50.77%; Viability %, Caco-2, 3rd concentration ([6]; human, Caco-2, 48 h): 41.86%; Viability %, Caco-2, 4th concentration ([6]; human, Caco-2, 48 h): 23.02%; Viability %, Caco-2, 5th concentration ([6]; human, Caco-2, 48 h): 20.05%; IC50 at 48 h [7]: 305 ± 4.72 µM; viability at 48 h ([7]; Viability %, WI-38, 1st concentration): 77.5%; viability at 48 h ([7]; Viability %, WI-38, 2nd concentration): 69.1%; viability at 48 h ([7]; Viability %, WI-38, 3rd concentration): 62.3%; viability at 48 h ([7]; Viability %, WI-38, 4th concentration): 52.7%; viability at 48 h ([7]; Viability %, WI-38, 5th concentration): 38.5%; Viability %, A549, 1st concentration [17]: 80.86%; Viability %, A549, 2nd concentration [17]: 69.31%; Viability %, A549, 3rd concentration [17]: 36.91%; Viability %, A549, 4th concentration [17]: 18.92%; Viability %, A549, 5th concentration [17]: 11.20%
3 | COc1ccc(Nc2n[nH]c(N=Cc3ccc(N4CCCCC4)cc3)c2C(=O)Nc2ccc(Cl)cc2)cc1 [5f] | 31.77 ± 0.05 | 27.33 ± 0.05 | 42.76 ± 0.03 | 27.28 ± 0.03 | 23.72 ± 0.03 | 89.43 | 80.91 | 61.88 | 39.72 | 32.34 | 61.98 ± 0.12 | 7.95 | 76 | 60.7 | 87.9 | 82 | 44.8 | 236.29 ± 0.33 | 3.57 ± 0.02 | 60.45 ± 0.12 | IC50 at 48 h [7, 29]: 493 ± 9.88 µM; Caspase-3 level, Colon (Caco-2) [10]: 266.92 ± 0.39 pg/mL; Bcl-2 level, Colon (Caco-2) [11]: 2.91 ± 0.03 ng/mL; Iron-Reducing Power (IRP) [12]: 34.85 ± 0.07 µg/mL; ABTS (%) inhibition [13]: 76.74 ± 0.05%; IC50 [14]: 22.83 ± 0.01 µM; Viability %, A549, 1st concentration [15]: 97.46%; Viability %, A549, 2nd concentration [15]: 87.31%; Viability %, A549, 3rd concentration [15]: 60.91%; Viability %, A549, 4th concentration [15]: 46.48%; Viability %, A549, 5th concentration [15]: 20.20%; Total Antioxidant Capacity (TAC) [16]: 53.14 ± 0.20 mg Gallic Acid/g
